The source of these data is PubChem BioAssay AID652214 (Broad Institute, 2013).

One may read the AC50 as the concentration at which the activity in the assay is half-maximal.

Molecules are shown by their SMILES. Calls of active or inactive are those of the source.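 How the source made its calls: active means AC50 of 30 µM or below; inactive means AC50 above 30 µM.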

The assay deals with Thioredoxin (Homo sapiens) (UniProt P10599). Kind of assay: TRX disulfide reduction blockade – biochemical, insulin turbidity, dry powder samples, counter-screen for PDI inhibitor project, dose response (AID 652214). To be noted: purified thioredoxin, insulin reduction turbidity OD650. A general note: Counterscreens check selectivity or assay interference.
Sequence of Thioredoxin (Homo sapiens) (P10599 whole entry, looked up): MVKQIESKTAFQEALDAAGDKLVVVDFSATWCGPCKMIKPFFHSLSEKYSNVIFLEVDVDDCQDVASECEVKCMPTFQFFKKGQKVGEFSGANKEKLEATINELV
Regarding `CCN(C)C(=O)C1(CCOc2ccccc2)CCN(Cc2ccc(O)c(Cl)c2)CC1`, the AC50 was > 30 µM (inactive).
As for `C/C1=C\[C@@H](O)C(C)(C)CCCC2(C)OC2C[C@@H]1OC(=O)c1ccc(O)cc1` (some centres not stated), the figure is 3 µM; as for `CCOC(=O)C1(CCOc2ccccc2)CCN(Cc2ccc(O)cc2)CC1`, > 30 µM (inactive); as for `CCOC(=O)c1c(CN2CCN(CCO)CC2)n(-c2ccccc2)c2cc(Br)c(O)cc12`, > 30 µM (inactive).
On to `O=C(Nc1ccccc1)C1(CCOc2ccccc2)CCN(Cc2ccc(O)c(Cl)c2)CC1`, for which the AC50 was > 30 µM (inactive).
Take `C/C1=C\C[C@H](OC(=O)c2ccc(O)cc2)/C(C)=C/[C@@H](O)C(C)(C)CCC1`: the AC50 is > 30 µM (inactive).
As for `CC(C)OC(=O)C1(CCOc2ccccc2)CCN(Cc2ccc(O)c(Cl)c2)CC1`, the figure is > 30 µM (inactive).
As for `CCOC(=O)C1(CCOc2ccccc2)CCN(Cc2ccc(O)c(Cl)c2)CC1`, the figure is > 30 µM (inactive).
On to `O=C(NC1CCCC1)C1(CCOc2ccccc2)CCN(Cc2ccc(O)c(Cl)c2)CC1`, for which the AC50 was > 30 µM (inactive).
The result for `CC(C)(C)OC(=O)C1(CCOc2ccccc2)CCN(Cc2ccc(O)c(Cl)c2)CC1` reads > 30 µM (inactive); that for `CCOC(=O)C1(CCOc2ccccc2)CCN(C(=O)c2ccc(O)c(Cl)c2)CC1`, > 30 µM (inactive); that for `CCOC(=O)C1(CCOc2ccccc2)CCN(Cc2ccc(OC)c(Cl)c2)CC1`, > 30 µM (inactive).
